US8557770B2, “Method of preventing or reducing scarring of human skin” (Pharmecosse Ltd., priority 2000, dated 2013)
Where two headings read alike, the source gives them in different places.

Assays:
[1] = test system: fibroblast cultures from burns scars; test: In vitro myofibroblast differentiation assay (α-smooth muscle actin staining), burns scar fibroblasts; assay type: cell-based, human; conditions: 14 days
Source text: (§1) One of the most important cell types in both normal and pathological scar formation is the myofibroblast. These cells, which differentiate from the unwounded tissue cell type (fibroblasts), are responsible for laying down scar tissue. Indeed myofibroblasts remain present in hypertrophic scars up to four years after the original wounding event. An in vitro assay was accordingly developed to identify actives which prevent or reduce myofibroblast formation and thus identify actives which are effective in reducing and/or preventing scar tissue formation.
(§2) Fibroblast cultures were initiated from normal skin, normal scars, hypertrophic scars (HTS) and burns scars.
(§3) Each culture was split into seven parts (A to G) and grown in the following different growth media:
(§4) (A) was grown in normal growth medium (hereinafter referred to as NGM) which consisted of Dulbecco's modified Eagles Medium (DMEM) plus 10% Foetal Calf Serum (FCS);
(§5) (B) was grown in growth factor depleted medium (hereinafter referred to as GF depleted) which is NGM that is depleted of active polypeptide growth factors including TGFP. It is prepared by treating FCS with a reducing agent in order to attack and cleave the disulphide bonds that determine the conformation and thus the biological activity of the polypeptide growth factors;
(§6) (D) (D1-D4) were grown in growth factor depleted medium plus 1 ng/ml-100 ng/ml of insulin-like Growth Factor-I) (IGF-I) (hereinafter referred to as GF depleted+IGF-I); (E) (E1-E3) were grown in growth factor depleted medium plus 50 ng/ml-[…] of insulin-like Growth Factor II (IGF-II) (hereinafter referred to as GF depleted+IGFII); (F) (F1F3) were grown in growth factor depleted medium plus 25 ng/ml to 100 ng/ml of basic fibroblast growth factor (bFGF) (hereinafter referred to as GF depleted and bFGF);
(G) (G1-G3) were grown in growth factor depleted medium plus 25 ng/ml to 100 ng/ml of platelet derived growth factor (PDGF) (hereinafter referred to as GF depleted+PDGF).
(§7) The fibroblasts were grown in these media (which was replenished twice weekly) for fourteen days, fixed and stained immunohistochemically using an antibody specific for α-smooth muscle actin (a marker of myofibroblasts). The stain caused α-smooth muscle actin to fluoresce green and accordingly cells that had stained green were identified as myofibroblasts. The number of these was counted, as was the total number of cells present, and the proportion of myofibroblasts was then calculated. In this manner, the number of myofibroblasts present in each culture was determined as a percentage of the total number of cells in the culture population.

[2] = test system: fibroblast cultures from normal scars; test: In vitro myofibroblast differentiation assay (α-smooth muscle actin staining), normal scar fibroblasts; assay type: cell-based, human
Source text: as §1, §2, §3, §4, §5
as §6, with “bFGF); […]” for “bFGF);”
as §7, with “The stain caused α-smooth muscle actin to fluoresce green and accordingly cells that had stained green were identified as myofibroblasts.” left out
(§8) Fibroblast cultures were initiated from normal scars (NS) and hypertrophic scars (HTS). […] The number of myofibroblasts was calculated as a percentage of the total cell population and the results are shown in FIGS. 1 and 2 of the drawings.
(§9) Fibroblasts cultures were initiated from normal and hypertrophic scars. […] The number of myofibroblasts were counted and calculated as a percentage of the total cells present.

[3] = test system: fibroblast cultures from hypertrophic scars (HTS); test: In vitro myofibroblast differentiation assay (α-smooth muscle actin staining), hypertrophic scar fibroblasts; assay type: cell-based, human; conditions: hypertrophic scar fibroblasts
Source text: as §1, §2, §3, §4, §5
as §6, with “bFGF); […]” for “bFGF);”
as §7, with “The stain caused α-smooth muscle actin to fluoresce green and accordingly cells that had stained green were identified as myofibroblasts.” left out
as §8, §9

[4] = biological target: T1, PPARγ (Homo sapiens, UniProt P37231); conditions: read-out: Published C50, cited from earlier work
T1 sequence (P37231 1-505): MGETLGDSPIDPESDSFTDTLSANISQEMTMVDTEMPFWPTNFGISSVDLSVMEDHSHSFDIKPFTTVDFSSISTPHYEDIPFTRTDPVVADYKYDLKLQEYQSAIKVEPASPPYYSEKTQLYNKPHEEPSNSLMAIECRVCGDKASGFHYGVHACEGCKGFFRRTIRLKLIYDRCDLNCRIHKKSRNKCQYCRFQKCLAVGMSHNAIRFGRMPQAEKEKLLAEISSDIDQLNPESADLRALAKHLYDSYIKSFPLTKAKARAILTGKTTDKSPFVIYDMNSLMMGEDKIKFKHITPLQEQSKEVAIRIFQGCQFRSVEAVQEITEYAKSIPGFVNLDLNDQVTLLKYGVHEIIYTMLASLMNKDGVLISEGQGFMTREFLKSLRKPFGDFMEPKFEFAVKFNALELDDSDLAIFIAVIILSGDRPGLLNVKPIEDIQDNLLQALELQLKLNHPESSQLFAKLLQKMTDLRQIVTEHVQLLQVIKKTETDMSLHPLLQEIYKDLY

[5] = test system: PPAR; conditions: Table 3: other general PPAR agonists; read-out: Published C50; cited from earlier work
[6] = test system: dermal fibroblast cell lines; test: Myofibroblast number in dermal fibroblast cell lines in GFD medium with PPAR agonist; assay type: cell-based, human; conditions: for Mean percentage reduction in myofibroblast number compared to GFD medium alone: 14 days
Source text: Dermal fibroblast cell lines were derived from 3 patients and seeded individually onto sterile coverslips. […] Medium was refreshed twice weekly and cultures were harvested for immunohistochemical staining for α-smooth muscle actin after 14 days. The number of myofibroblasts was counted and calculated as a percentage of the total cells present, and since the ability of each cell line to differentiate into myofibroblasts varied extensively, the results were normalised as follows. Results are expressed as the mean percentage reduction in myofibroblast number for each treatment as compared to the proportion of myofibroblasts identified in GFD medium alone for that cell line. The error bars represent plus or minus one standard deviation.

[7] = Table 5: natural PPARγ agonists
[8] = NGM plus 0.5 ng/ml TGFβ1, 5 days (FIG. 3)

IGF-II: insulin-like Growth Factor II
Number of myofibroblasts - percentage of total cell population ([1]; GF depleted medium + 50 ng/ml): 37.93 percentage of total cell popul
Number of myofibroblasts - percentage of total cell population ([1]; GF depleted medium + 100 ng/ml): 40.26 percentage of total cell popul
Number of myofibroblasts - percentage of total cell population ([1]; GF depleted medium + 200 ng/ml): 38.52 percentage of total cell popul

O=C[C@@H](O)[C@@H](O)[C@H](O)[C@H](O)COP(=O)(O)O [mannose-6-phosphate, reference compound]
Induction of myofibroblast differentiation in GFD medium ([2]; GFD plus 100 μM or 10 μM M-6-P, 13 days (FIG. 1)): inhibits the induction of myofibroblast differentiation
Induction of myofibroblast differentiation in GFD medium ([3]; GFD plus 100 μM or 10 μM M-6-P, 13 days (FIG. 2)): inhibits the induction of myofibroblast differentiation

CCCCCC(O)C=CC=CCCCCCCCC(=O)O (stereo not drawn) [13-HODE, 13-hydroxy-9,11-octadecadienoic acid]
EC50 [4, 7]: ~20 µM

CCCc1c(OCCCOc2ccc(OCC(=O)O)cc2)ccc(C(C)=O)c1O [L-165041]
EC50 [5]: 5.5 µM

CC(C)(Oc1ccc(CCNC(=O)c2ccc(Cl)cc2)cc1)C(=O)O [Bezafibrate, 2-[4-[2-[(4-chlorobenzoyl)-amino]ethyl]phenoxy]-2-methyl propanoic acid]
EC50 [5]: 60 µM

CCCCC/C=C\C/C=C\CCCCCCCC(=O)O [Linoleic acid]
EC50 [4, 7]: ~20 µM

CC1(COc2ccc(CC3SC(=O)NC3=O)cc2)CCCCC1 (racemic) [Ciglitazone, (±)-5-[4-(1-methyl-cyclohexylmethoxy)-benzyl]-thiazolidine-2,4-dione]
Mean percentage reduction in myofibroblast number compared to GFD medium alone ([6]; 0.5×10^−7M): 79%
Mean percentage reduction in myofibroblast number compared to GFD medium alone ([6]; 10^−6M): 57%
Mean percentage reduction in myofibroblast number compared to GFD medium alone ([6]; 10^−7M): 53%

CCCc1c(OCCCCc2nnn[nH]2)ccc(C(C)=O)c1O [LY171883]
Numbers of myofibroblasts ([6]; non-specific PPAR agonist): increase the numbers of myofibroblasts

CCCCC/C=C\C/C=C\C/C=C\C/C=C\CCCC(=O)O [Arachidonic acid]
EC50 [4, 7]: ~20 µM

PDGF
Number of myofibroblasts - percentage of total cell population ([1]; GF depleted medium + 25 ng/ml): 50.95 percentage of total cell popul
Number of myofibroblasts - percentage of total cell population ([1]; GF depleted medium + 50 ng/ml): 52.84 percentage of total cell popul
Number of myofibroblasts - percentage of total cell population ([1]; GF depleted medium + 100 ng/ml): 53.35 percentage of total cell popul

CCCCCC=CC=CC(O)CCCCCCCC(=O)O (stereo not drawn) [9-HODE, 9-hydroxy-10,12-octadecadienoic acid]
EC50 [4, 7]: ~20 µM

CCOC(=O)C(C)(C)Oc1ccc(Cl)cc1 [Clofibrate]
EC50 ([4]; Table 4: strong agonists for PPAR receptors other than PPARγ, weak action on PPARγ): ~500 µM

IGF-I: insulin-like Growth Factor-I
Number of myofibroblasts - percentage of total cell population ([1]; GF depleted medium + 1 ng/ml): 40.79 percentage of total cell popul
Number of myofibroblasts - percentage of total cell population ([1]; GF depleted medium + 10 ng/ml): 43.90 percentage of total cell popul
Number of myofibroblasts - percentage of total cell population ([1]; GF depleted medium + 50 ng/ml): 51.51 percentage of total cell popul
Number of myofibroblasts - percentage of total cell population ([1]; GF depleted medium + 100 ng/ml): 47.00 percentage of total cell popul

TGFβ1: transforming growth factor beta 1, inducer of myofibroblast differentiation
Induction of myofibroblast differentiation [2, 8]: induces a rapid (within 5 days) induction of myofibroblast differentiation
Induction of myofibroblast differentiation [3, 8]: induces a rapid (within 5 days) induction of myofibroblast differentiation

CCCCC[C@H](O)/C=C/C=C\C/C=C\C/C=C\CCCC(=O)O [15-HETE, 15-hydroxy-eicosatetraenoic acid]
EC50 [4, 7]: ~10 µM

bFGF: basic fibroblast growth factor
Number of myofibroblasts - percentage of total cell population ([1]; GF depleted medium + 25 ng/ml): 31.82 percentage of total cell popul
Number of myofibroblasts - percentage of total cell population ([1]; GF depleted medium + 100 ng/ml): 34.21 percentage of total cell popul

CC/C=C\C/C=C\C/C=C\C/C=C\C/C=C\CCCC(=O)O [Eicosapentaenoic acid (EPA), Eicosapentaenoic acid]
EC50 [4, 7]: ~20 µM

CCCCCC=CC=C1C(=O)C=C[C@@H]1CC=CCCCC(=O)O [15-deoxy-Δ^12,14 prostaglandin J2]
EC50 [4, 7]: ~3 µM
